Marks after values point to notes of the source that are not given here.
What was measured:
Format in all cases: in vivo, rat
[1] = tested on: IL-6; assay: IL-6 content in serum, brain and colon of CUMS rats
Protocol: (§1) A series of experiments were conducted using the chronic unpredictable mild stress (CUMS) rodent model. Rats were exposed daily to any two of the following mild physiological stresses selected at random: • 12 hours of water deprivation • 12 hours of food deprivation • 8 hours of damp sawdust • 24 hours of reversed light/dark cycle • 2 minutes of tail pinching • 1 hour of 60 Hz noise • 15 minutes of cage shaking • Swimming in 4° C. water for 5-10 minutes • 2 hours of restraining.
(§2) Six groups of rats were assessed: • 1. Control rats: rats raised normally without stress treatments and without nutritional or drug interventions. • 2. CUMS rats: rats subjected to the CUMS protocol but without nutritional or drug interventions. • 3. CUMS HN001: rats subjected to the CUMS protocol and given HN001. • 4. CUMS HN019: rats subjected to the CUMS protocol and given HN019. • 5. CUMS HN001+HN019: rats subjected to the CUMS protocol given both HN001 and HN019. • 6.
(§3) Baseline assessments were then conducted, including blood collection. For the next 40 days, rats in groups 2-6 were exposed to CUMS treatments to induce depression symptoms associated with stress and anxiety.
(§4) A series of blood markers were assessed.

[2] = tested on: brain and colon tissue; assay: HE staining of brain and colon tissues of CUMS rats; details: FIG. 5
Description: Brain tissues included two regions from the hippocampus (Dentate Gyrus (DG) and CA1) and a region from the cortex (P2).
Brain and colon tissue were stained using the HE method. Brain tissue included two regions from the hippocampus (Dentate Gyrus (DG) and CA1) and a region from the cortex (P2). The results are shown in FIG. 5 and reveal that for the control group, neurons in hippocampal regions (dentate gyrus (DG) and Ca1) and the cortex (P2) were normal, orderly, tightly packed cells. The cells had expected morphology, homogeneous cytoplasmic staining, and no increased interstitial or abnormal changes.
For the colon tissue, control intestinal villi were arranged neatly, with normal cell morphology and no obvious damage was seen.

[3] = tested on: Adrenocorticotropic Hormone (ACTH); assay: Serum adrenocorticotropic hormone content in CUMS rats
Protocol: as §1, §2, §3

[4] = tested on: TNF-α; assay: TNF-α content in serum, brain and colon of CUMS rats
Protocol: as §1, §2, §3, §4

[5] = tested on: CUMS rats; assay: Open field test in CUMS (chronic unpredictable mild stress) rats
Protocol: as §1, §2, §3
(§5) Tests were then carried out to assess rat behaviours, such as the open field test and the elevated maze test (see FIG. 2). These are standard ways to measure rat stress and anxiety traits.

[6] = tested on: Corticotropin Releasing Hormone (CRH); assay: Serum corticotropin releasing hormone content in CUMS rats; details: after CUMS, before intervention
Protocol: as §1, §2, §3

[7] = tested on: TNF-alpha, IL-6, IL-1β and IL-18; assay: Cytokines TNF-alpha, IL-6, IL-1β and IL-18 in serum, brain tissue and colon of CUMS rats; details: versus CUMS
Protocol: as §1, §2, §3, §4

[8] = tested on: CUMS rats; assay: Elevated-plus maze test in CUMS rats
Protocol: as §1, §2, §3, §5

[9] = serum, after CUMS with intervention
[10] = serum, after CUMS, before intervention
[11] = after CUMS, before intervention
[12] = base line, before CUMS and before intervention

CNCCC(Oc1ccc(C(F)(F)F)cc1)c1ccccc1 (stereo not shown) [Flu, fluoxetine, reference compound]
IL-6 Content, Brain ([1]; brain, end of experiment): 19.35 ± 4.29^b pg/ml | IL-6 Content, Colon ([1]; colon, end of experiment): 30.89 ± 7.22^b pg/ml | IL-6 Content, serum-after intervention [1, 9]: 9.83 ± 3.83^b pg/ml | IL-6 Content, serum-after CUMS [1, 10]: 13.35 ± 6.46^a pg/ml | Morphology of hippocampus (DG, CA1) and cortex (P2) ([2]; brain): CUMS-associated damage was largely reduced | Morphology of colon tissue (intestinal villi, mucosa) ([2]; colon): largely reduced | Serum Adrenocorticotropic Hormone (ACTH) Content, After intervention ([3]; after CUMS with intervention): 2.90 ± 2.20^b pg/ml | Serum Adrenocorticotropic Hormone (ACTH) Content, After CUMS [3, 11]: 5.58 ± 1.41^a pg/ml | TNF-α Content, Brain ([4]; brain, end of experiment): 48.62 ± 7.26^b pg/ml | TNF-α Content, Colon ([4]; colon, end of experiment): 69.09 ± 12.48^b pg/ml | TNF-α Content, serum-after intervention [4, 9]: 9.83 ± 3.83^b pg/ml | TNF-α Content, serum-after CUMS [4, 10]: 23.35 ± 6.46^a pg/ml | Total Distance Travelled in Open Field Test, After CUMS only (x ± S) ([5]; after 40 days CUMS, before intervention): 2.89 ± 2.15^a Metres | Vertical Movement (Number of Times Standing Up) in Open Field Test, After intervention (x ± S) ([5]; after CUMS with intervention): 11.20 ± 3.49^b | Vertical Movement (Number of Times Standing Up) in Open Field Test, After CUMS (x ± S) [5, 11]: 2.00 ± 1.79^a | Total Distance Travelled in Open Field Test, Base line (x ± S) [5, 12]: 23.34 ± 2.98 Metres | Vertical Movement (Number of Times Standing Up) in Open Field Test, Base line (x ± S) [5, 12]: 17.20 ± 8.04 | Serum Corticotropin Releasing Hormone (CRH) Content, After CUMS [6]: 5.50 ± 2.02^a pg/ml | Levels of cytokines TNF-alpha, IL-6, IL-1β and IL-18 [7]: reduced levels of cytokines | Time in Closed Arms in Elevated Plus Maze, After intervention (x ± S) ([8]; after CUMS with intervention): 224.96 ± 18.71^b Seconds | Total Distance Travelled in Elevated Maze Test, After intervention (x ± S) ([8]; after CUMS with intervention): 6.19 ± 1.75^b Metres | Time in Closed Arms in Elevated Plus Maze, After CUMS (x ± S) [8, 11]: 292.57 ± 8.90^a Seconds | Total Distance Travelled in Elevated Maze Test, After CUMS (x ± S) [8, 11]: 2.37 ± 1.12^a Metres | Time in Closed Arms in Elevated Plus Maze, Base line (x ± S) [8, 12]: 240.31 ± 16.95 s | Total Distance Travelled in Elevated Maze Test, Base line (x ± S) [8, 12]: 7.44 ± 1.38 Metres
